This assay relates to vesperlysine-like and pentosidine-like AGEs from albumin glycation. The assay can be described thus: Inhibition of AGE formation from albumin glycation (BSA + D-ribose, fluorescence). It is filed as biochemical, bovine. Here is the method: Following solutions were prepared for the assay: Reagent A: Phosphate buffer pH 7.0: 0.03 M KH2PO4 and 0.03 M K2HPO4 in ultrapure water (Millipore® Synergy® UV); Reagent B: 1.3 mg/mL aminoguanidine hydrochloride in phosphate buffer; Reagent C: 32 mg/mL Rosamox-Z in phosphate buffer; Reagent D: 30 mg/mL Zemea® Propanediol in phosphate buffer; Reagent E: 30 mg/mL BSA in phosphate buffer; Reagent F: 1.5 M D-ribose in phosphate buffer.
All the diluted samples (Sample B1-B5) were used for the AGE reaction.
Samples C1-C5 were diluted from the sample stock (reagent C) solution. Samples C6-C9 were diluted from Sample C5. All the diluted samples (Sample C1-C9) were used for the AGE reaction. Test samples D were diluted the same way as test samples C.
(Following Sero, L. et al. (2013) Tuning a 96-Well Microtiter Plate Fluorescence-Based Assay to Identify AGE Inhibitors in Crude Plant Extracts. Molecules. 18, 14320-14339.) A 96-well plate was prepared as follows (each sample was prepared in triplicate): Blank wells—50 μL BSA stock (reagent E) solution and 100 μL phosphate buffer (reagent A); Negative control wells—50 μL BSA stock (reagent E) and 50 μL diluent (Reagent A) to three empty wells; Positive control wells—50 μL BSA stock (reagent E) and 50 μL Aminoguanidine hydrochloride samples (Sample B1-B5); All treatments—50 μL BSA stock (reagent E) and 50 μL treatments (Sample C1-C9 and D1-D9); 50 μL D-ribose solutions (Reagent F) were added to every well except the blank wells.
The plates were read for fluorescence at λexc 370 nm λem 440 nm for versperlysines-like AGEs and λexc 335 nm λem 385 nm for pentosidine like AGEs. The plate was wrapped with aluminum foil to avoid light exposure and incubated at 37° C. and read again after 24 hours.
% inhibition was calculated as ((control 24 hours−control 0 hours)−(treatment 24 hours−treatment 0 hours))/(control 24 hours−control 0 hours).
FIG. 10 is a chart of the inhibition effect of Rosamox-Z on the formation of vesperlysine-like and pentosidine-like AGEs from albumin glycation. […]

SMILES strings stand for the structures.

In the case of `[2H]C([2H])(O)C([2H])([2H])C([2H])([2H])O` [Zemea® Propanediol, Propanediol], where the note is “0-15 mg/mL, λexc 335 nm λem 385 nm, 24 h at 37° C.”, the “inhibition effect for pentosidine-like AGEs” value is “around 10%”. Further, the “promoting effect for vesperlysines-like AGEs” value (0-15 mg/mL, λexc 370 nm λem 440 nm, 24 h at 37° C.) is “around 5%”. Turning to `CC(C)c1cc2c(c(O)c1O)[C@@]1(C(=O)O)CCCC(C)(C)[C@@H]1CC2` [carnosic acid], the “predicted 1050 for these reactions” value (worked out from the Rosamox-Z value and 4% carnosic acid content) was 0.4 to 0.6 mg/mL.

Values taken from patent publication US20150164967A1, “Personal Care Products Containing Extracts of Rosemary” (Kemin Industries, Inc., priority 2013, published 2015).
